The record followed here is patent US20210284647A1, “N-(3-(IMIDAZO[1,2-B]PYRIDAZIN-3-YLETHYNYL)-4-METHYLPHENYL)-5-PHENYL-4,5-DIHYDRO-1H-PYRAZOLE-1-CARBOXAMIDE DERIVATIVE, AND PHARMACEUTICAL COMPOSITION CONTAINING SAME AS ACTIVE INGREDIENT FOR TREATING KINASE-RELATED DISEASES” (VORONOIBIO INC., priority 2018, published 2021).

pEC50, pIC50: −log10 of the molar value.

Experiment [1] has as its system human Jurkat T cells deficient in FADD. Briefly: Cell protection effect under apoptosis-inducing condition (TNF-α). Format: cell-based. To be noted: 40 ng of TNF-α, 50 hours, CellTiter-Glo, read-out: I2.I Cell EC50. The protocol:
The cell protection effect of the compounds according to the present invention under the condition of inducing apoptosis by TNF-α was confirmed by […]. An apoptosis inducing factor such as TNF-α was treated to induce apoptosis of human Jurkat T cells deficient in FADD, to which the example compound was treated, and the cell protection effect was confirmed through the following analysis. Jurkat T cells deficient in FADD were cultured using RPMI medium (Hyclone) containing 10% FBS. When performing the test, the cells were seeded in a 96-well plate containing a medium suitable for the cell line at the density of 10,000 cells/well, and cultured in a 37° C. 5% CO2 incubator for 24 hours. Then, each well was treated with 40 ng of TNF-α, and the compounds prepared in the above examples were each treated with a 3-fold concentration gradient with 1 μM as the highest concentration. As the solvent control, dimethyl sulfoxide (DMSO) was treated at the concentration of 0.05% (v/v), which was the same concentration as that used for the compound treatment. Then, the cells were cultured for 50 hours. To confirm the degree of viability of the cells, a mixture provided in CellTiter-Gloe Luminescent Cell Viability Assay Kit (Promega) was added to the culture medium of the cells, followed by further culture at 37° C. for 30 minutes. Then, luminescence fluorescence was measured. The degree of inhibition of apoptosis induction according to the treatment concentration of each compound was calculated based on the fluorescence of the solvent control cells not treated with the compound. At this time, the concentration of each compound inhibiting 50% was determined as EC50 (μM). EC50 of each compound was calculated using Prism (version 7.01, GraphPad) software.

The target in a further experiment is T1, human GST-RIPK1 (Homo sapiens, UniProt Q13546).
T1 construct: GST; purchased signalchem
T1 sequence (Q13546 1-375 limits assumed): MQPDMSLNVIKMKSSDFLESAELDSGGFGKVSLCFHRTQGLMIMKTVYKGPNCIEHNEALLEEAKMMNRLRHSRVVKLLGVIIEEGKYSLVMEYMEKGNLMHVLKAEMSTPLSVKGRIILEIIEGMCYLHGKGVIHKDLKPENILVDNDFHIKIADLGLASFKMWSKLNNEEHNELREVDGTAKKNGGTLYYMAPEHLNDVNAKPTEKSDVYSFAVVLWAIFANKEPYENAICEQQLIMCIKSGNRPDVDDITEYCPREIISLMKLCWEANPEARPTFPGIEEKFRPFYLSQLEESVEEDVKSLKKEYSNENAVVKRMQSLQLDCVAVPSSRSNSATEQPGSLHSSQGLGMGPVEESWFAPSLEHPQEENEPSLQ
In words: RIPK1 inhibitory activity (ADP-Glo kinase assay). Format: biochemical. To be noted: human GST-RIPK1 10 ng, ATP 50 uM, 25° C. for 4 hours, read-out: Enzyme IC50. The protocol: The following experiment was performed to evaluate the inhibitory activity of the example compounds according to the present invention against RIPK1 (receptor-interacting serine/threonine protein kinase 1).
The example compound was reacted with the purified human GST-RIPK1 (1375, signalchem) enzyme to evaluate the enzyme inhibitory activity in the following manner. The composition of the reaction buffer used herein was as follows: 40 mM Tris-Hcl pH 7.4, 20 mM MgCl2, 0.5 mg/ml, BSA and 0.5 uM DTT. All the test materials were reacted in the reaction buffer. After reacting human GST-RIPK1 (1375, 10 ng), purified ATP (50 uM) and a specific substrate solution at 25° C. for 4 hours, the enzyme activity was confirmed using an in vitro ADP-Glo™ kinase assay (promega). Luminoscence was measured by reacting the enzyme activity reaction solution, ADP-Glo reaction solution, and enzyme activity detection solution at the ratio of 2:2:1. The degree of enzyme activity inhibition according to the treatment concentration of each compound was calculated based on the fluorescence of the enzyme activity of the solvent control not treated with the compound. At this time, the concentration of each compound inhibiting 50% of the enzyme activity was determined as IC50 (nM). IC50 of each compound was determined with three data sets and calculated using Prism (version 7.01, GraphPad) software.

As to `Cc1ccc(NC(=O)N2N=CCC2c2ccccc2)cc1C#Cc1cnc2cccnn12` (stereo not shown) [Example 1, N-(3-(imidazo[1,2-b]pyridazin-3-ylethynyl)-4-methylphenyl)-5-phenyl-4,5-dihydro-1H-pyrazole-1-carboxamide 2,2,2-trifluoroacetate], the pEC50 in experiment [1] was 9.77.
Regarding `Cc1ccc(NC(=O)N2N=CC[C@H]2c2ccccc2)cc1C#Cc1cnc2cccnn12` [Example 2, (S)—N-(3-(imidazo[1,2-b]pyridazin-3-ylethynyl)-4-methylphenyl)-5-phenyl-4,5-dihydro-1H-pyrazole-1-carboxamide 2,2,2-trifluoroacetate], the pIC50 on human GST-RIPK1 was 8.29. Also, in experiment [1], the pEC50 is 10.22.
As to `Cc1ccc(NC(=O)N2N=CC[C@@H]2c2ccccc2)cc1C#Cc1cnc2cccnn12` [Example 3, (R)—N-(3-(imidazo[1,2-b]pyridazin-3-ylethynyl)-4-methylphenyl)-5-phenyl-4,5-dihydro-1H-pyrazole-1-carboxamide 2,2,2-trifluoroacetate], the pIC50 at human GST-RIPK1 was 6.66. In experiment [1], the negative-log EC50 (pEC50) is 6.50.
Taken in the same sequence, the figures for `Cc1ccc(NC(=O)N2N=CCC2c2cc(F)cc(F)c2)cc1C#Cc1cnc2cccnn12` (stereo not shown) [Example 4, 5-(3,5-difluorophenyl)-N-(3-(imidazo[1,2-b]pyridazin-3-ylethynyl)-4-methylphenyl)-4,5-dihydro-1H-pyrazole-1-carboxamide 2,2,2-trifluoroacetate] were 8.11 and 8.77.
For the compound `Cc1ccc(NC(=O)N2N=CC[C@H]2c2cc(F)cc(F)c2)cc1C#Cc1cnc2cccnn12` [Example 5, (S)-5-(3,5-difluorophenyl)-N-(3-(imidazo[1,2-b]pyridazin-3-ylethynyl)-4-methylphenyl)-4,5-dihydro-1H-pyrazole-1-carboxamide 2,2,2-trifluoroacetate], at human GST-RIPK1, the pIC50 is 8.34. For the same compound, the pEC50 in experiment [1] was 9.40.
Take `Cc1ccc(NC(=O)N2N=CC[C@@H]2c2cc(F)cc(F)c2)cc1C#Cc1cnc2cccnn12` [Example 6, (R)-5-(3,5-difluorophenyl)-N-(3-(imidazo[1,2-b]pyridazin-3-ylethynyl)-4-methylphenyl)-4,5-dihydro-1H-pyrazole-1-carboxamide 2,2,2-trifluoroacetate]: at human GST-RIPK1, the pIC50 was under 6.00. For the same compound, the negative-log EC50 (pEC50) in experiment [1] was 6.60.
For `Cc1ccc(NC(=O)N2N=CCC2c2ccc(C(F)(F)F)cc2)cc1C#Cc1cnc2cccnn12` (stereo not shown) [Example 7, N-(3-(imidazo[1,2-b]pyridazin-3-ylethynyl)-4-methylphenyl)-5-(4-(trifluoromethyl)phenyl)-4,5-dihydro-1H-pyrazole-1-carboxamide 2,2,2-trifluoroacetate], in that order: 6.87 and 8.72.
With `Cc1ccc(NC(=O)N2N=CCC2c2cccc(F)c2)cc1C#Cc1cnc2cccnn12` (stereo not shown) [Example 8, 5-(3-fluorophenyl)-N-(3-(imidazo[1,2-b]pyridazin-3-ylethynyl)-4-methylphenyl)-4,5-dihydro-1H-pyrazole-1-carboxamide 2,2,2-trifluoroacetate], on human GST-RIPK1, the pIC50 was 7.08. The pEC50 in experiment [1] was 9.23.
With `Cc1ccc(NC(=O)N2N=CC[C@H]2c2cccc(F)c2)cc1C#Cc1cnc2cccnn12` [Example 9, (S)-5-(3-fluorophenyl)-N-(3-(imidazo[1,2-b]pyridazin-3-ylethynyl)-4-methylphenyl)-4,5-dihydro-1H-pyrazole-1-carboxamide 2,2,2-trifluoroacetate], the pIC50 at human GST-RIPK1 was 7.71. Further, the pEC50 in experiment [1] is 9.39.
Taken in the same sequence, the figures for `Cc1ccc(NC(=O)N2N=CC[C@@H]2c2cccc(F)c2)cc1C#Cc1cnc2cccnn12` [Example 10, (R)-5-(3-fluorophenyl)-N-(3-(imidazo[1,2-b]pyridazin-3-ylethynyl)-4-methylphenyl)-4,5-dihydro-1H-pyrazole-1-carboxamide 2,2,2-trifluoroacetate] were 6.10 and 6.49.
In the case of `Cc1ccc(NC(=O)N2N=CCC2c2ccc(F)cc2)cc1C#Cc1cnc2cccnn12` (stereo not shown) [Example 11, 5-(4-fluorophenyl)-N-(3-(imidazo[1,2-b]pyridazin-3-ylethynyl)-4-methylphenyl)-4,5-dihydro-1H-pyrazole-1-carboxamide 2,2,2-trifluoroacetate], the negative logarithm of the IC50 (pIC50) on human GST-RIPK1 was 7.32. Besides, the pEC50 in experiment [1] was 9.46.
`Cc1ccc(NC(=O)N2N=CC[C@H]2c2ccc(F)cc2)cc1C#Cc1cnc2cccnn12` [Example 12, (S)-5-(4-fluorophenyl)-N-(3-(imidazo[1,2-b]pyridazin-3-ylethynyl)-4-methylphenyl)-4,5-dihydro-1H-pyrazole-1-carboxamide 2,2,2-trifluoroacetate]: at human GST-RIPK1, the pIC50 is 7.72. Moreover, the pEC50 in experiment [1] is 9.70.
Taken in the same sequence, the figures for `Cc1ccc(NC(=O)N2N=CC[C@@H]2c2ccc(F)cc2)cc1C#Cc1cnc2cccnn12` [Example 13, (R)-5-(4-fluorophenyl)-N-(3-(imidazo[1,2-b]pyridazin-3-ylethynyl)-4-methylphenyl)-4,5-dihydro-1H-pyrazole-1-carboxamide 2,2,2-trifluoroacetate] were 6.30 and 6.49.
Taken in the same sequence, the figures for `Cc1ccc(NC(=O)N2N=CCC2c2cccc(Cl)c2)cc1C#Cc1cnc2cccnn12` (stereo not shown) [Example 14, 5-(3-chlorophenyl)-N-(3-(imidazo[1,2-b]pyridazin-3-ylethynyl)-4-methylphenyl)-4,5-dihydro-1H-pyrazole-1-carboxamide 2,2,2-trifluoroacetate] were 8.28 and 9.70.
Take `Cc1ccc(NC(=O)N2N=CCC2c2ccc(Cl)cc2)cc1C#Cc1cnc2cccnn12` (stereo not shown) [Example 15, 5-(4-chlorophenyl)-N-(3-(imidazo[1,2-b]pyridazin-3-ylethynyl)-4-methylphenyl)-4,5-dihydro-1H-pyrazole-1-carboxamide 2,2,2-trifluoroacetate]: the pIC50 on human GST-RIPK1 is 8.37. Also, the pEC50 in experiment [1] is 10.00.
For `Cc1ccc(NC(=O)N2N=CCC2c2cccnc2)cc1C#Cc1cnc2cccnn12` (stereo not shown) [Example 16, N-(3-(imidazo[1,2-b]pyridazin-3-ylethynyl)-4-methylphenyl)-5-(pyridin-3-yl)-4,5-dihydro-1H-pyrazole-1-carboxamide 2,2,2-trifluoroacetate], in that order: 8.74 and 10.30.
Turning to `Cc1ccc(NC(=O)N2N=CCC2c2ccccn2)cc1C#Cc1cnc2cccnn12` (stereo not shown) [Example 17, N-(3-(imidazo[1,2-b]pyridazin-3-ylethynyl)-4-methylphenyl)-5-(pyridin-2-yl)-4,5-dihydro-1H-pyrazole-1-carboxamide 2,2,2-trifluoroacetate], the pIC50 at human GST-RIPK1 is 8.74. For the same compound, the pEC50 in experiment [1] is 9.70.
Consider `Cc1ccc(NC(=O)N2N=CCC2c2ccncc2)cc1C#Cc1cnc2cccnn12` (stereo not shown) [Example 18, N-(3-(imidazo[1,2-b]pyridazin-3-ylethynyl)-4-methylphenyl)-5-(pyridin-4-yl)-4,5-dihydro-1H-pyrazole-1-carboxamide 2,2,2-trifluoroacetate], for which, at human GST-RIPK1, the pIC50 is 8.62. In experiment [1], the pEC50 is 9.52.
Turning to `O=C(Nc1cccc(C#Cc2cnc3cccnn23)c1)N1N=CCC1c1ccccc1` (stereo not shown) [Example 19, N-(3-(imidazo[1,2-b]pyridazin-3-ylethynyl)phenyl)-5-phenyl-4,5-dihydro-1H-pyrazole-1-carboxamide 2,2,2-trifluoroacetate], on human GST-RIPK1, the pIC50 is 8.42. For the same compound, the pEC50 in experiment [1] was 9.59.
